# Measurements taken from patent publication US4736051A, “Process for the preparation of an alkali metal salt of a diester phosphoric acid” (Kao Corporation, priority 1985, dated 1988).
# Experiments:
# Assay type in all cases: physicochemical
# Craft point = test: Craft point
# [1] = Lather amount (lather volume) of 5% aqueous solution of surface active agent; settings: 100 g, 1000 rpm, 30 seconds agitation, 10 seconds standing, 40° C.
# Protocol: The lather amount was measured according to the following manner. An aqueous solution containing 5% of surface active agent is prepared and 100 g of the aqueous solution is poured into a measuring cylinder, followed by agitation for 30 seconds by agitator. After agitation, the aqueous solution is placed as it is for 10 seconds, followed by subjecting to measurement of the lather volume. The revolution of the agitator is 1000 rpm and the agitator paddles are reversely rotated every 5 seconds. Temperature was maintained 40° C. during the measurement.
# [2] = Hygroscopicity of isolated powder; settings: white powder
# [3] = Phase diagram in aqueous system (FIG. 1)
Compound,craft point (°C.) (Craft point) [°C],lather amount (lather Vol. ml) [1] [mL],hygroscopicity [2],phase diagram in aqueous systems [3]
Sodium 2 dodecyl phosphate,20,230,,
CCCCCCCCCCCCOP(=O)([O-])OCC(O)C[N+](C)(C)C (stereo not drawn) [Example 14],,,very hygroscopic,
CCCCCCCCCCCCOP(=O)([O-])[O-].[Na+].[Na+] [Sodium 1 dodecyl phosphate],32,260,,
"C=C(C)C(=O)OCC(O)COP(=O)([O-])OCCCCCCCCCCCC.[Na+] (stereo not drawn) [Compound (XIV), sodium dodecyl 2-hydroxy-3-methacryloyloxypropyl phosphate]",,,,liquid crystals
